Measured values reported in patent publication US20200308220A1, “AROMATIC-CATIONIC PEPTIDES CONJUGATED TO AN[…] THEIR USE IN TREATING COMPLEX REGIONAL PAIN SYNDROME” (priority 2015, published 2020).
Where a SMILES comes first, the peptide text is derived from it.

Key:
[1] = biological target: T1, δ opioid receptor (DOR) (Mus musculus, UniProt P32300); assay: Inhibition of electrically evoked contractions of the mouse vas deferens (MVD); format: cell-based
T1 construct: the guinea pig ileum (GPI) and the mouse vas deferens (MVD); from tissue; host or cells: mouse vas deferens
T1 sequence (P32300 whole entry): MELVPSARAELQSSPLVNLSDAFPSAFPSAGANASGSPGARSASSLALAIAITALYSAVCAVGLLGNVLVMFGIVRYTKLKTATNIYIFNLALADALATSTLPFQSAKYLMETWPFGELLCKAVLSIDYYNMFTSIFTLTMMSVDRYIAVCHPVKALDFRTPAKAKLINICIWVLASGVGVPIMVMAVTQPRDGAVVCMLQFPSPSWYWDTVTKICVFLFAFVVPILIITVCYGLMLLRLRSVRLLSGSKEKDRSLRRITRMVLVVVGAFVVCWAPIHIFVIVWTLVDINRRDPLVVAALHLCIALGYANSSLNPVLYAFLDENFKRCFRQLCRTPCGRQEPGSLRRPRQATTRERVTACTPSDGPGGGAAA
Protocol: (§1) Peptide conjugates of Table 5 were tested in functional assays based on inhibition of electrically evoked contractions of the guinea pig ileum (GPI) and the mouse vas deferens (MVD). The GPI assay is representative for μ opioid receptor (MOR) interactions, whereas in the MVD assay opioid effects are primarily mediated by the δ opioid receptor (DOR). The assays were carried out as described in DiMaio et al., J. Med. Chem. (1982) 25, 1432-1438. Binding affinities for μ and δ receptors were determined by displacing, respectively, [^3H]DAMGO and [^3H]DSLET from rat brain membrane binding sites (see Schiller et al., Biochem. Biophys. Res. Commun. (1978) 85, 1332-1338).

[2] = biological target: T2, μ receptors (Rattus norvegicus, UniProt P33535); assay: Receptor binding, displacement of [3H]DAMGO from rat brain membrane binding sites
T2 construct: from tissue; host or cells: rat brain membranes
T2 sequence (P33535 whole entry): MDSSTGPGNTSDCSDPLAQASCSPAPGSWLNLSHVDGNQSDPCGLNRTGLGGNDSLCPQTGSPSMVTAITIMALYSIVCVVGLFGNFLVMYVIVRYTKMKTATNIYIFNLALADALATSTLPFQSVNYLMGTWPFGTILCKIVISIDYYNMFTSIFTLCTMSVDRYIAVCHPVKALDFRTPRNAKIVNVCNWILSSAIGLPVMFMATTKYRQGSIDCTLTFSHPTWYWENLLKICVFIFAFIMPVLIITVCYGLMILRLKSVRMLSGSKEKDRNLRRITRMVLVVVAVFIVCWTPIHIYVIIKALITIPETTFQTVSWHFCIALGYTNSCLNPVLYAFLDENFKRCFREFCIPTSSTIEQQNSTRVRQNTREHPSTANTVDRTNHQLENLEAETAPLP
Protocol: as §1

[3] = biological target: T3, δ receptors (Rattus norvegicus, UniProt P33533); assay: Receptor binding, displacement of [3H]DSLET from rat brain membrane binding sites
T3 construct: from tissue; host or cells: rat brain membranes
T3 sequence (P33533 whole entry): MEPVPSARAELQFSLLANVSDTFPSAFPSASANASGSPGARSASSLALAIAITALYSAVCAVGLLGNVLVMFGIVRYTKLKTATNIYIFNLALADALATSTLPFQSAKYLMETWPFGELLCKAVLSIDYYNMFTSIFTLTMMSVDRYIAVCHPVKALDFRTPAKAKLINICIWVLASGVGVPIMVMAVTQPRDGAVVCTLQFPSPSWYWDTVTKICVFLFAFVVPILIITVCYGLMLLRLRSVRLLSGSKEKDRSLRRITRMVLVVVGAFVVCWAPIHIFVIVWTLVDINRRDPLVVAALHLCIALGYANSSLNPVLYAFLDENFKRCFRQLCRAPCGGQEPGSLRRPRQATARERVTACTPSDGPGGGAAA
Protocol: as §1

[4] = tested on: CPIP rats; assay: Chronic post-ischemia pain (CPIP) rat model of CRPS-I, reversal of mechanical allodynia
Protocol: H-Dmt-D-Arg-Phe-Lys(NH-TEMPO)-NH2 was tested in a chronic post-ischemia pain (CPIP) rat model (see Coderre et al., Pain (2004) 112, 94-105) of CRPS-I in comparison with [Dmt^1]DALDA and morphine (subcutaneous (s.c.) administration). The analgesic potencies (ED50 values) of the compounds were determined based on their ability to reverse mechanical allodynia in CPIP rats (Table 6).

Structure (SMILES)	IC50 [1] [nM]	Ki [2] [nM]	Ki [3] [nM]	crossing the blood-brain barrier ([4]; inferred from centrally mediated analgesic effect after s.c. dosing)	ED50 ± SEM (analgesic potency) ([4]; reversal of mechanical allodynia in CPIP rats, s.c. administration) [mg/kg]	ED50 ([4]; Rattus norvegicus, sc, read-out: ED50 ± SEM (analgesic potency)) [mg/kg]	Potency Ratio ([4]; relative to morphine (=1), CPIP rats, s.c.)
Cc1cc(O)cc(C)c1C[C@H](N)C(=O)N[C@H](CCCNC(=N)N)C(=O)N[C@@H](Cc1ccccc1)C(=O)NC(CCCCNC1CC(C)(C)N([O])C(C)(C)C1)C(N)=O (stereo partly drawn) [H-Dmt-D-Arg-Phe-Lys(NH-TEMPO)-NH2]	1.15	0.263	30.4	capable of crossing the blood-brain barrier	–	–	–
Cc1cc(O)cc(C)c1C[C@H](N)C(=O)N[C@H](CCCNC(=N)N)C(=O)N[C@@H](Cc1ccccc1)C(=O)N[C@@H](CCCCN)C(N)=O [H-Dmt-D-Arg-Phe-Lys-NH2]	–	–	–	–	0.103 ± 0.046	–	–
Cc1cc(O)cc(C)c1C[C@H](N)C(=O)N[C@H](CCCNC(=N)N)C(=O)N[C@@H](Cc1ccccc1)C(=O)N[C@@H](CCCCNC(=O)[C@]1(C)CCc2c(C)c(O)c(C)c(C)c2O1)C(N)=O [H-Dmt-D-Arg-Phe-Lys(Tro[S])-NH2, H-Dmt-D-Arg-Phe-Lys(Tro[S])—NH2]	3.76	0.252	3.48	–	–	–	–
CN1CC[C@]23c4c5ccc(O)c4O[C@H]2[C@@H](O)C=C[C@H]3[C@H]1C5 [morphine]	–	–	–	–	–	1.55 ± 0.664	1
Cc1cc(O)cc(C)c1C[C@H](N)C(=O)N[C@H](CCCNC(=N)N)C(=O)N[C@@H](Cc1ccccc1)C(=O)N[C@@H](CCCCNC(=O)[C@@]1(C)CCc2c(C)c(O)c(C)c(C)c2O1)C(N)=O [H-Dmt-D-Arg-Phe-Lys(Tro[R])-NH2]	0.847	0.273	3.64	–	–	–	–
Cc1cc(O)cc(C)c1C[C@H](N)C(=O)N[C@H](CCCNC(=N)N)C(=O)N[C@@H](Cc1ccccc1)C(=O)N[C@@H](CCCCN)C(=O)NCCC(=O)NC1CC(C)(C)N([O])C(C)(C)C1 [H-Dmt-D-Arg-Phe-Lys-NH—(CH2)2—CO—NH-TEMPO] (HELM PEPTIDE1{[Cc1cc(O)cc(C)c1C[C@H](N)C(=O)[*:2]].[dR].F.K.[bAla].[CC1(C)CC(N[*:1])CC(C)(C)N1[O]]}$$$$V2.0)	262	4.56	2.15	–	–	–	–
